This note sets out measurements from PubChem BioAssay AID330 (DTP/NCI, 2004).

Values joined by “and” are separate entries in the source; they are usually repeats but may differ in a detail not shown here. Equal entries are not always repeated. Inconclusive results and toxic doses are left out.

The experiment concerns P388 leukemia ip, CD2F1 mice, survival T/C. Briefly: NCI In Vivo Anticancer Drug Screen. Data for tumor model P388 Leukemia (intraperitoneal) in CD2F1 (CDF1) mice. The following applies: endpoint: median survival time, higher = longer survival. The gist of the method:
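Mice carrying the transplanted tumor received test compound or vehicle. Survival was recorded in each group, and the value is the treated-group measurement divided by that of the vehicle-treated control group.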

Where [1] appears, read: dose: 60.0 mg/kg/injection, schedule: Q01DX005 (ip), vehicle: saline.
[2] abbreviates: dose: 120.0 mg/kg/injection, schedule: Q01DX005 (ip), vehicle: saline.
[3] abbreviates: dose: 240.0 mg/kg/injection, schedule: Q01DX005 (ip), vehicle: saline.
Setting [4] is: dose: 50.0 mg/kg/injection, schedule: Q01DX009 (ip), vehicle: Klucel (hydroxypropylcellulose) (HPC).
Setting [5] is: dose: 100.0 mg/kg/injection, schedule: Q01DX009 (ip), vehicle: Klucel (hydroxypropylcellulose) (HPC).
The mark [6] stands for this setting: dose: 200.0 mg/kg/injection, schedule: Q01DX009 (ip), vehicle: Klucel (hydroxypropylcellulose) (HPC).
The mark [7] stands for this setting: dose: 100.0 mg/kg/injection, schedule: Q04DX003 (ip), vehicle: Klucel (hydroxypropylcellulose) (HPC).
The mark [8] stands for this setting: dose: 200.0 mg/kg/injection, schedule: Q04DX003 (ip), vehicle: Klucel (hydroxypropylcellulose) (HPC).
The mark [9] stands for this setting: dose: 400.0 mg/kg/injection, schedule: Q04DX003 (ip), vehicle: Klucel (hydroxypropylcellulose) (HPC).

Turning to `CC(C)[Si]1(C(C)C)N[Si](C(C)C)(C(C)C)N1`, the T/C is 115 % of control (dose: 15.0 mg/kg/injection, schedule: Q01DX005 (ip), vehicle: saline); 105 % of control (dose: 30.0 mg/kg/injection, schedule: Q01DX005 (ip), vehicle: saline); 98 % of control under setting [1]; 106 % of control under setting [2]; 97 % of control under setting [3].
In the case of `COc1ccc2c(=O)c(-c3cc4c(cc3OC)OCO4)coc2c1`, the T/C is 88 % of control (dose: 8.0 mg/kg/injection, schedule: Q01DX005 (ip), vehicle: Klucel (hydroxypropylcellulose) (HPC)) and 86 % of control (dose: 16.0 mg/kg/injection, schedule: Q01DX005 (ip), vehicle: Klucel (hydroxypropylcellulose) (HPC)).
Consider `COc1cc([C@H]2c3c(cc(OC)c(OC)c3OC)CC3COC(=O)[C@@H]32)cc(Br)c1O` (stereo partly specified), for which the T/C is 101 % of control (dose: 60.0 mg/kg/injection, schedule: Q01DX005 (ip), vehicle: saline with Tween-80); 95 % of control (dose: 120.0 mg/kg/injection, schedule: Q01DX005 (ip), vehicle: saline with Tween-80); 98 % of control (dose: 240.0 mg/kg/injection, schedule: Q01DX005 (ip), vehicle: saline with Tween-80).
As for `CC(C)[CH2][Sn](=[O])[c]1ccccc1`, the T/C runs as follows: (dose: 0.39 mg/kg/injection, schedule: Q01DX009 (ip), vehicle: saline) 88 % of control; (dose: 0.79 mg/kg/injection, schedule: Q01DX009 (ip), vehicle: saline) 87 % of control; (dose: 1.56 mg/kg/injection, schedule: Q01DX009 (ip), vehicle: saline) 95 % of control.
With `O=C(O)/C=N/NS(=O)(=O)c1ccc2ccccc2c1`, the T/C reads like this: (dose: 50.0 mg/kg/injection, schedule: Q01DX009 (ip), vehicle: other) 161 % of control and 164 % of control; (dose: 200.0 mg/kg/injection, schedule: Q01DX009 (ip), vehicle: other) 153 % of control.
Regarding `c1ccc(C23CCCCC2O3)cc1` (stereo unspecified), the T/C was 102 % of control (dose: 60.0 mg/kg/injection, schedule: Q01DX005 (ip), vehicle: Klucel (hydroxypropylcellulose) (HPC)); 107 % of control (dose: 120.0 mg/kg/injection, schedule: Q01DX005 (ip), vehicle: Klucel (hydroxypropylcellulose) (HPC)); 111 % of control (dose: 240.0 mg/kg/injection, schedule: Q01DX005 (ip), vehicle: Klucel (hydroxypropylcellulose) (HPC)).
On to `COc1ccc(CCN2C(=O)C(=O)N(C3CCCCC3)C2=O)cc1OC`, for which the T/C is 93 % of control under setting [4], 95 % of control under setting [5] and 100 % of control under setting [6].
For the compound `O=C(O)CCCCCCCCCCNC(=O)CI`, the T/C is 107 % of control (dose: 6.25 mg/kg/injection, schedule: Q01DX009 (ip), vehicle: Klucel (hydroxypropylcellulose) (HPC)); 119 % of control (dose: 12.5 mg/kg/injection, schedule: Q01DX009 (ip), vehicle: Klucel (hydroxypropylcellulose) (HPC)); 119 % of control (dose: 25.0 mg/kg/injection, schedule: Q01DX009 (ip), vehicle: Klucel (hydroxypropylcellulose) (HPC)).
`O=P(O)(O)OC1C(OP(=O)(O)O)C(OP(=O)(O)O)C(OP(=O)(O)O)C(OP(=O)(O)O)C1OP(=O)(O)O` (stereo unspecified): the T/C is, setting by setting: (dose: 50.0 mg/kg/injection, schedule: Q01DX009 (ip), vehicle: saline) 94 % of control; (dose: 100.0 mg/kg/injection, schedule: Q01DX009 (ip), vehicle: saline) 94 % of control; (dose: 200.0 mg/kg/injection, schedule: Q01DX009 (ip), vehicle: saline) 102 % of control.
Turning to `C[CH2][Ge]([CH2]C)[CH2]/C(C)=C(/C)[CH2][Ge]([CH2]C)[CH2]C`, the T/C is, setting by setting: (dose: 50.0 mg/kg/injection, schedule: Q01DX009 (ip), vehicle: saline with Tween-80) 100 % of control; (dose: 100.0 mg/kg/injection, schedule: Q01DX009 (ip), vehicle: saline with Tween-80) 108 % of control.
As for `CCCNCc1cccc2ccnc(C)c12`, the T/C (dose: 50.0 mg/kg/injection, schedule: Q01DX005 (ip), vehicle: saline) is 109 % of control; the T/C (dose: 100.0 mg/kg/injection, schedule: Q01DX005 (ip), vehicle: saline) was 104 % of control; the T/C (dose: 200.0 mg/kg/injection, schedule: Q01DX005 (ip), vehicle: saline) was 101 % of control.
As to `Cc1c2oc3c(C)ccc(C(=O)NC(C(=O)NC(C(=O)NCCO)C(C)C)C(C)O)c3nc-2c(C(=O)NC(C(=O)NC(C(=O)NCCO)C(C)C)C(C)O)c(N)c1=O` (stereo unspecified), the T/C (dose: 0.05 mg/kg/injection, schedule: Q01DX009 (ip), vehicle: water) is 99 % of control; the T/C (dose: 0.1 mg/kg/injection, schedule: Q01DX009 (ip), vehicle: water) is 100 % of control; the T/C (dose: 0.2 mg/kg/injection, schedule: Q01DX009 (ip), vehicle: water) is 100 % of control; the T/C (dose: 0.4 mg/kg/injection, schedule: Q01DX009 (ip), vehicle: water) is 97 % of control; the T/C (dose: 0.8 mg/kg/injection, schedule: Q01DX009 (ip), vehicle: water) is 98 % of control; the T/C (dose: 1.6 mg/kg/injection, schedule: Q01DX009 (ip), vehicle: water) is 88 % of control and 94 % of control. Also, the T/C (dose: 3.2 mg/kg/injection, schedule: Q01DX009 (ip), vehicle: water) was 92 % of control; the T/C (dose: 6.4 mg/kg/injection, schedule: Q01DX009 (ip), vehicle: water) is 110 % of control; the T/C (dose: 12.8 mg/kg/injection, schedule: Q01DX009 (ip), vehicle: water) is 97 % of control.
With `CC(C)(C)c1cc(C(=O)O)c2c(c1)C(=O)OCS2`, the T/C runs as follows: under setting [7], 99 % of control; under setting [8], 91 % of control; under setting [9], 97 % of control.
In the same order, the values of `CCOC(=O)C1(C)OC1c1ccc([N+](=O)[O-])cc1` (stereo unspecified) are 97 % of control, 94 % of control and 100 % of control.
As for `CC(=O)Nn1cnc2[nH]ncc2c1=O`, the T/C under setting [1] was 102 % of control, the T/C under setting [2] is 101 % of control and the T/C under setting [3] is 101 % of control.
`CC1=C[C@H]2C[C@]3(C)CC[C@H]4[C@H](C)C(=O)O[C@@H]4[C@@]13OO2`: the T/C reads like this: (dose: 0.75 mg/kg/injection, schedule: Q01DX005 (ip), vehicle: Klucel (hydroxypropylcellulose) (HPC)) 107 % of control; (dose: 1.5 mg/kg/injection, schedule: Q01DX005 (ip), vehicle: Klucel (hydroxypropylcellulose) (HPC)) 103 % of control; (dose: 3.0 mg/kg/injection, schedule: Q01DX005 (ip), vehicle: Klucel (hydroxypropylcellulose) (HPC)) 90 % of control; (dose: 6.0 mg/kg/injection, schedule: Q01DX005 (ip), vehicle: Klucel (hydroxypropylcellulose) (HPC)) 111 % of control.
As for `CCC12Nc3ccc([N+](=O)[O-])cc3C(CC)(C1=O)C(c1ccccc1)=C2c1ccccc1` (stereo unspecified), the T/C by setting is: under setting [4], 113 % of control; under setting [5], 110 % of control; under setting [6], 112 % of control.
As for `CC1CCC[N-]C1.CC1CCC[N-]C1.CC1CCC[N-]C1.CC1CCC[N-]C1.[Cl][Rh][Cl]` (stereo unspecified), the T/C was 122 % of control (dose: 1.5 mg/kg/injection, schedule: Q01DX009 (ip), vehicle: saline) and 152 % of control (dose: 6.0 mg/kg/injection, schedule: Q01DX009 (ip), vehicle: saline).
For the compound `COc1ccc2c(c1O)CN1CCc3cc4c(cc3C1C2)OCO4` (stereo unspecified), the T/C is 104 % of control (dose: 50.0 mg/kg/injection, schedule: Q01DX005 (ip), vehicle: saline with Tween-80); 110 % of control (dose: 100.0 mg/kg/injection, schedule: Q01DX005 (ip), vehicle: saline with Tween-80); 115 % of control (dose: 200.0 mg/kg/injection, schedule: Q01DX005 (ip), vehicle: saline with Tween-80).
Turning to `COc1cc(NC(C)CCCN)c2ncccc2c1Sc1ccc(Cl)cc1` (stereo unspecified), the T/C is, setting by setting: (dose: 3.13 mg/kg/injection, schedule: Q01DX009 (ip), vehicle: saline with Tween-80) 89 % of control; (dose: 6.25 mg/kg/injection, schedule: Q01DX009 (ip), vehicle: saline with Tween-80) 94 % of control.
Take `CC1(C)O[C@H]2CC(=O)OC[C@]23[C@H]2CC[C@@]4(C)C(c5ccoc5)OC(=O)[C@H]5O[C@]54[C@]2(C)[C@@H](OC(=O)CCl)C[C@@H]13` (stereo partly specified): the T/C was 113 % of control (dose: 0.5 mg/kg/injection, schedule: Q01DX009 (ip), vehicle: saline + alcohol) and 111 % of control (dose: 1.0 mg/kg/injection, schedule: Q01DX009 (ip), vehicle: saline + alcohol).
